Test results from the OligoGym collection.
After the bases stand the sugars from the 5' end (letter, count) and the backbone: PS all phosphorothioate, else s phosphorothioate and o phosphodiester by linkage. Methylation of C is not given here. e = 2'-O-(2-methoxyethyl) (MOE); k = constrained ethyl (cEt); d = 2'-deoxy (DNA); m = 2'-O-methyl

Biological target: HSD17B13
Conditions: ASO, HepaRG

| Sequence | target mRNA inhibition (1 µM) [%] | further results |
| --- | --- | --- |
| ACTGCTGCTAGTGCCA (sugars kkdddddddddkekek, PS) | 39 | – |
| ACTTGAACAGTCTTAA (sugars k3 d1 m1 d8 k3, PS) | 29 | – |
| ACTTGAACAGTCTTAA (sugars k3 d9 k3 e1, PS) | 60 | – |
| ACTTGAACAGTCTTAA (sugars kkdddddddddkekek, PS) | 60 | – |
| ACTTGATCTCTTAGCT (sugars k3 d10 k3, PS) | 59 | – |
| ACTTTTAGTCAGGTAG (sugars k3 d10 k3, PS) | 26 | – |
| ACTTTTGGTGGACTTC (sugars k3 d10 k3, PS) | 0 | – |
| AGAAATTTGTGAACCT (sugars k3 d10 k3, PS) | 39 | – |
| AGAAGGACTTTCATAG (sugars k3 d10 k3, PS) | 46 | – |
| AGAATTAAGGGCTATA (sugars k3 d10 k3, PS) | 45 | – |
| AGACAATGACATAGAC (sugars k3 d10 k3, PS) | 14 | – |
| AGACAGACTGTTGAGC (sugars k3 d10 k3, PS) | 74 | – |
| AGACCAAGTAGCTTAC (sugars k3 d10 k3, PS) | 42 | – |
| AGACTTTGAGACTCTT (sugars k3 d9 k3 e1, PS) | 41 | – |
| AGACTTTGAGACTCTT (sugars kkdddddddddkekek, PS) | 55 | – |
| AGACUTTGAGACTCTT (sugars k3 d1 m1 d8 k3, PS) | 48 | – |
| AGAGAGTAATCAGTTT (sugars k3 d9 k3 e1, PS) | 51 | – |
| AGAGAGTAATCAGTTT (sugars k3 d10 k3, PS) | 39 | – |
| AGAGCATAAGTTACCA (sugars k3 d10 k3, PS) | 88 | target mRNA inhibition (0.02 µM): 4%; target mRNA inhibition (0.078 µM): 11%; target mRNA inhibition (0.313 µM): 50%; target mRNA inhibition (1.25 µM): 78%; target mRNA inhibition (5 µM): 79% |
| AGAGGCTAGGGAAATC (sugars k3 d9 k3 e1, PS) | 68 | – |
| AGAGGGTCCACTTTTG (sugars k3 d10 k3, PS) | 34 | – |
| AGAGTATTTCCTCTGG (sugars k3 d10 k3, PS) | 32 | – |

| Sequence | target mRNA inhibition (1 µM) [%] | further results |
| --- | --- | --- |
| AGAGTCGGTCACCTTT (sugars k3 d9 k3 e1, PS) | 66 | – |
| AGAGTTGCACCGTTTT (sugars kkdddddddddkekek, PS) | 80 | target mRNA inhibition (0.02 µM): 6%; target mRNA inhibition (0.078 µM): 18%; target mRNA inhibition (0.313 µM): 38%; target mRNA inhibition (1.25 µM): 63%; target mRNA inhibition (5 µM): 81% |
| AGATCCCGTTCTTGCC (sugars k3 d10 k3, PS) | 68 | target mRNA inhibition (0.02 µM): 0%; target mRNA inhibition (0.078 µM): 20%; target mRNA inhibition (0.313 µM): 47%; target mRNA inhibition (1.25 µM): 72%; target mRNA inhibition (5 µM): 76% |
| AGATGTACACTGACAA (sugars k3 d10 k3, PS) | 66 | – |
| AGCAAAGTTTGGGCAG (sugars k3 d10 k3, PS) | 44 | – |
| AGCATAAGTTACCAGA (sugars k3 d10 k3, PS) | 87 | target mRNA inhibition (0.02 µM): 14%; target mRNA inhibition (0.078 µM): 31%; target mRNA inhibition (0.313 µM): 49%; target mRNA inhibition (1.25 µM): 73%; target mRNA inhibition (5 µM): 92% |
| AGCATTATTCACCACG (sugars k3 d10 k3, PS) | 53 | – |
| AGCCACTGTGACGATG (sugars k3 d10 k3, PS) | 10 | – |
| AGCCAGTACAGTTCCT (sugars k3 d10 k3, PS) | 58 | – |
| AGCCAGTACAGTTCCT (sugars kkdddddddddkekek, PS) | 49 | – |
| AGCCTTAGAGTGAATC (sugars k3 d10 k3, PS) | 74 | target mRNA inhibition (0.02 µM): 35%; target mRNA inhibition (0.078 µM): 54%; target mRNA inhibition (0.313 µM): 84%; target mRNA inhibition (1.25 µM): 94%; target mRNA inhibition (5 µM): 89% |
| AGCTAGATACTCAATT (sugars k3 d10 k3, PS) | 2 | – |
| AGCTATTGTCTTTGAT (sugars k3 d10 k3, PS) | 39 | – |
| AGCTGAGAGTTCTACA (sugars k3 d10 k3, PS) | 67 | – |
| AGCTGGTAAAGGTAAG (sugars k3 d10 k3, PS) | 55 | – |
| AGCTGTGCACTCATTC (sugars k3 d10 k3, PS) | 57 | – |
| AGGAAGTGATCCATAT (sugars k3 d10 k3, PS) | 60 | – |
| AGGATGATGTTCATGG (sugars k3 d10 k3, PS) | 88 | target mRNA inhibition (0.02 µM): 25%; target mRNA inhibition (0.078 µM): 27%; target mRNA inhibition (0.313 µM): 71%; target mRNA inhibition (1.25 µM): 80%; target mRNA inhibition (5 µM): 71% |
| AGGATGTTGACCTCAA (sugars k3 d10 k3, PS) | 4 | – |
| AGGAUAGTCCATGCAA (sugars k3 d1 m1 d8 k3, PS) | 55 | – |
| AGGCAGTTGAAGTTGA (sugars k3 d10 k3, PS) | 47 | – |
| AGGCTGTAAGAGTCAG (sugars k3 d9 k3 e1, PS) | 49 | – |

| Sequence | target mRNA inhibition (1 µM) [%] | further results |
| --- | --- | --- |
| AGGCUGTAAGAGTCAG (sugars k3 d1 m1 d8 k3, PS) | 52 | – |
| AGGGAAGATCTGGCTG (sugars k3 d10 k3, PS) | 4 | – |
| AGGTAAGGAATCCCTT (sugars k3 d10 k3, PS) | 0 | – |
| AGGTTGAGATAAAGCT (sugars k3 d9 k3 e1, PS) | 71 | target mRNA inhibition (0.02 µM): 0%; target mRNA inhibition (0.078 µM): 23%; target mRNA inhibition (0.313 µM): 46%; target mRNA inhibition (1.25 µM): 64%; target mRNA inhibition (5 µM): 77% |
| AGGTTGAGATAAAGCT (sugars k3 d10 k3, PS) | 74 | target mRNA inhibition (0.02 µM): 20%; target mRNA inhibition (0.078 µM): 27%; target mRNA inhibition (0.313 µM): 40%; target mRNA inhibition (1.25 µM): 69%; target mRNA inhibition (5 µM): 86% |
| AGGTTGAGATAAAGCT (sugars kkdddddddddkekek, PS) | 60 | – |
| AGTAAACGACTCTGTA (sugars k3 d10 k3, PS) | 33 | – |
| AGTAAATGATGGCAGG (sugars k3 d10 k3, PS) | 40 | – |
| AGTAATCACAAGTAAG (sugars k3 d10 k3, PS) | 54 | – |
| AGTACAGTTCCTTTTC (sugars k3 d1 m1 d8 k3, PS) | 56 | – |
| AGTAGATTTGGTAGAG (sugars k3 d10 k3, PS) | 67 | – |
| AGTAGTGTAAGCTGAG (sugars k3 d1 m1 d8 k3, PS) | 68 | – |
| AGTAGTGTAAGCTGAG (sugars kkdddddddddkekek, PS) | 52 | – |
| AGTATAGTTATCTTCT (sugars k3 d10 k3, PS) | 67 | – |
| AGTATTCCATCTATCA (sugars k3 d10 k3, PS) | 62 | – |
| AGTATTTGGGTGTTCT (sugars k3 d10 k3, PS) | 17 | – |
| AGTCAGTATCCCCTCA (sugars k3 d10 k3, PS) | 82 | target mRNA inhibition (0.02 µM): 6%; target mRNA inhibition (0.078 µM): 14%; target mRNA inhibition (0.313 µM): 32%; target mRNA inhibition (1.25 µM): 70%; target mRNA inhibition (5 µM): 74% |
| AGTCATTTTTAATACG (sugars k3 d10 k3, PS) | 13 | – |
| AGTCCATGCAAAAGCA (sugars k3 d1 m1 d8 k3, PS) | 73 | target mRNA inhibition (0.02 µM): 0%; target mRNA inhibition (0.078 µM): 21%; target mRNA inhibition (0.313 µM): 20%; target mRNA inhibition (1.25 µM): 65%; target mRNA inhibition (5 µM): 75% |
| AGTCCTTGTGTAGTCC (sugars k3 d10 k3, PS) | 64 | – |
| AGTCGGTCACCTTTCA (sugars k3 d9 k3 e1, PS) | 75 | target mRNA inhibition (0.02 µM): 1%; target mRNA inhibition (0.078 µM): 17%; target mRNA inhibition (0.313 µM): 37%; target mRNA inhibition (1.25 µM): 66%; target mRNA inhibition (5 µM): 62% |
| AGTCGGTCACCTTTCA (sugars k3 d10 k3, PS) | 66 | – |

| Sequence | target mRNA inhibition (1 µM) [%] | further results |
| --- | --- | --- |
| AGTCTACCACATACGC (sugars k3 d10 k3, PS) | 65 | – |
| AGTCTTGATGTAGTGG (sugars k3 d10 k3, PS) | 63 | – |
| AGTGAAATCTTGTGTA (sugars k3 d10 k3, PS) | 41 | – |
| AGTGAATCATTCAGTA (sugars k3 d10 k3, PS) | 86 | target mRNA inhibition (0.02 µM): 49%; target mRNA inhibition (0.078 µM): 54%; target mRNA inhibition (0.313 µM): 80%; target mRNA inhibition (1.25 µM): 93%; target mRNA inhibition (5 µM): 94% |
| AGTGCATCTTAAGATA (sugars k3 d10 k3, PS) | 57 | – |
| AGTGCTTAGTTCATTG (sugars k3 d10 k3, PS) | 84 | target mRNA inhibition (0.02 µM): 0%; target mRNA inhibition (0.078 µM): 0%; target mRNA inhibition (0.313 µM): 31%; target mRNA inhibition (1.25 µM): 58%; target mRNA inhibition (5 µM): 84% |
| AGTGCTTTTGTGATCC (sugars k3 d10 k3, PS) | 25 | – |
| AGTGGGAGTCGGATTA (sugars k3 d10 k3, PS) | 50 | – |
| AGTGTAAGCTGAGAGT (sugars k3 d10 k3, PS) | 71 | – |
| AGTTAATAGGACTAAA (sugars k3 d10 k3, PS) | 13 | – |
| AGTTAGGGAGCCAGCG (sugars k3 d10 k3, PS) | 38 | – |
| AGTTATTAGAAGTCAG (sugars k3 d1 m1 d8 k3, PS) | 25 | – |
| AGTTTAGATTGCATAA (sugars k3 d10 k3, PS) | 50 | – |
| AGTTTTGGGACCAATA (sugars k3 d10 k3, PS) | 31 | – |
| AGTTTTTAAGAGGCAT (sugars k3 d10 k3, PS) | 75 | – |
| ATAAAAATCGCTGCTT (sugars k3 d10 k3, PS) | 11 | – |
| ATAAAGCTTTGCAGCA (sugars k3 d10 k3, PS) | 54 | – |
| ATAACATGGCTGGCAT (sugars k3 d10 k3, PS) | 14 | – |
| ATAACTACAAGAGGTT (sugars k3 d9 k3 e1, PS) | 67 | – |
| ATAACTACAAGAGGTT (sugars k3 d10 k3, PS) | 64 | – |
| ATAAGAGCCAAACTGC (sugars k3 d10 k3, PS) | 49 | – |
